Assays:
human KHK-A = human KHK-A (Homo sapiens (Human), UniProt P50053); test: KHK Biochemical Assay (IC50), ADP-Glo, KHK-A; settings: ADP-Glo; average of at least two separate assays
In short: (§1)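 His-tagged enzyme expressed in BL21 (DE3), Ni-NTA purified. Compounds, serially diluted 1:3 in DMSO, pre-incubated 30 min with enzyme in 50 mM Hepes pH 7.4, 140 mM KCl, 5 mM MgCl2, 0.01% Triton-X, then ATP and fructose added; 4 h at room temperature. ADP formation read by ADP-Glo luminescence.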

human KHK-C = human KHK-C (Homo sapiens (Human), UniProt P50053); test: KHK Biochemical Assay (IC50), ADP-Glo, KHK-C; settings: ADP-Glo; average of at least two separate assays
Sequence of human KHK-C (P50053 whole entry): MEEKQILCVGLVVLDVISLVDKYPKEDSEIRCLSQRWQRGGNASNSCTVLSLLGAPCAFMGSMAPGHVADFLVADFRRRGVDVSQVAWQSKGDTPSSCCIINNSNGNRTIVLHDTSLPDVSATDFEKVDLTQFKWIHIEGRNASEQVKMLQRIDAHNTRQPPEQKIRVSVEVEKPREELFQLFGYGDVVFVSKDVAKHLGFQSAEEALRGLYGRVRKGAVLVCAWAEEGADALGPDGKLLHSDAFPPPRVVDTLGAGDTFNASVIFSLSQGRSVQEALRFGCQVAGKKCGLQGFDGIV
In short: as §1

Sequence of human KHK-A (P50053 other isoform, or with tags, fused parts or gaps): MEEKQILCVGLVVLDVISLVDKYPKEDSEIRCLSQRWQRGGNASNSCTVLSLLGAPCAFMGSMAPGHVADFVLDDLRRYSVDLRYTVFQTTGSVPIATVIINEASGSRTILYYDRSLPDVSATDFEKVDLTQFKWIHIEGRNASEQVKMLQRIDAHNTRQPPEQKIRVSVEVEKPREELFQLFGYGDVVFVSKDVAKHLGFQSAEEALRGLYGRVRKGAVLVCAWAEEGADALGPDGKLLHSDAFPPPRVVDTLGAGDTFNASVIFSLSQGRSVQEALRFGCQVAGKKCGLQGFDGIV

SMILES	IC50 (human KHK-A) [nM]	IC50 (human KHK-C) [nM]
c1ccc(-c2nc(C3CCC3)nc3c2CCC3)cc1 [Example 97, 2-cyclobutyl-4-phenyl-6,7-dihydro-5H-cyclopenta[d]pyrimidine]	937	2230
c1ccc(-c2nc(C3CC4CCC3C4)nc3c2CCC3)cc1 (stereo not drawn) [Example 98, 2-(bicyclo[2.2.1]heptan-2-yl)-4-phenyl-6,7-dihydro-5H-cyclopenta[d]pyrimidine]	> 5000	> 5000
c1ccc(-c2nc(C3CNC3)nc3c2CCC3)cc1 [Example 99, 2-(azetidin-3-yl)-4-phenyl-6,7-dihydro-5H-cyclopenta[d]pyrimidine]	> 5000	> 5000
C[C@H]1CCN1c1nc2c(c(-c3ccc(-n4cccn4)cc3)n1)CCC2 [Example 102, (S)-4-(4-(1H-pyrazol-1-yl)phenyl)-2-(2-methylazetidin-1-yl)-6,7-dihydro-5H-cyclopenta[d]pyrimidine]	279	420
C[C@H]1CCN1c1nc2c(c(-c3ccc(-c4ccn[nH]4)cc3)n1)CCC2 [Example 103, (S)-4-(4-(1H-pyrazol-5-yl)phenyl)-2-(2-methylazetidin-1-yl)-6,7-dihydro-5H-cyclopenta[d]pyrimidine]	707	1280
C[C@@H]1[C@@H](C)CN1c1nc2c(c(-c3ccc(C(N)=O)cc3)n1)CCC2 [Example 108]	594	466
C[C@@H]1CN(c2nc3c(c(-c4ccc(C(N)=O)cc4)n2)CCC3)[C@@H]1C [Example 109, 4-(2-((2R,3R)-2,3-dimethylazetidin-1-yl)-6,7-dihydro-5H-cyclopenta[d]pyrimidin-4-yl)benzamide]	3200	2540
Cc1nc2cc(-c3nc(N4CC[C@@H]4C)nc4c3CCC4)ccc2s1 [Example 110, (S)-2-methyl-5-(2-(2-methylazetidin-1-yl)-6,7-dihydro-5H-cyclopenta[d]pyrimidin-4-yl)benzo[d]thiazole]	322	136
C[C@H]1CCN1c1nc2c(c(-c3cccc(C45CCC(C4)C5C(=O)O)c3)n1)CCC2 (stereo partly drawn) [Example 115, 1-(3-(2-((S)-2-methylazetidin-1-yl)-6,7-dihydro-5H-cyclopenta[d]pyrimidin-4-yl)phenyl)bicyclo[2.1.1]hexane-5-carboxylic acid]	94.1	109
CC1=C(c2nc3c(c(-c4ccc(C(N)=O)cc4)n2)CCC3)CCC1=O [Example 117, 4-(2-(2-methyl-3-oxocyclopent-1-en-1-yl)-6,7-dihydro-5H-cyclopenta[d]pyrimidin-4-yl)benzamide]	4780	3780
C[C@H]1[C@H](O)CN1c1nc2c(c(-c3ccc4c(c3)CN(C)C4=O)n1)CCC2 [Example 194, 5-[2-[(2S,3R)-3-hydroxy-2-methyl-azetidin-1-yl]-6,7-dihydro-5H-cyclopenta[d]pyrimidin-4-yl]-2-methyl-isoindolin-1-one]	308	219
C[C@H]1[C@H](O)CN1c1nc2c(c(-c3ccc(S(N)(=O)=O)cc3)n1)CCC2 [Example 199, 4-[2-[(2S,3R)-3-hydroxy-2-methyl-azetidin-1-yl]-6,7-dihydro-5H-cyclopenta[d]pyrimidin-4-yl]benzenesulfonamide]	282	149
C[C@H]1CCN1c1nc(-c2ccccc2)c2cccnc2n1 [Example 212, 2-[(2S)-2-methylazetidin-1-yl]-4-phenyl-pyrido[2,3-d]pyrimidine]	10500	5590
C[C@H]1CCN1c1nc2c(c(-c3cccc(C(=O)NCc4ccccc4)c3)n1)CCC2 [Example 218, N-benzyl-3-[2-[(2S)-2-methylazetidin-1-yl]-6,7-dihydro-5H-cyclopenta[d]pyrimidin-4-yl]benzamide]	418	485
C[C@H]1CCN1c1nc2c(c(-c3ccc4nc(C(F)(F)F)[nH]c4c3)n1)CCC2 [Example 241, 6-[2-[(2S)-2-methylazetidin-1-yl]-6,7-dihydro-5H-cyclopenta[d]pyrimidin-4-yl]-2-(trifluoromethyl)-1H-benzimidazole]	803	1070

Further lines, results first:

IC50 (human KHK-A) [nM]	IC50 (human KHK-C) [nM]	SMILES
161	161	Cc1nnc(-c2ccc(-c3nc(N4CC[C@@H]4C)nc4c3CCC4)cc2)o1 [Example 100, (S)-2-methyl-5-(4-(2-(2-methylazetidin-1-yl)-6,7-dihydro-5H-cyclopenta[d]pyrimidin-4-yl)phenyl)-1,3,4-oxadiazole]
69.1	119	C[C@H]1CCN1c1nc2c(c(-c3ccc(-c4nccn4C)cc3)n1)CCC2 [Example 101, (S)-4-(4-(1-methyl-1H-imidazol-2-yl)phenyl)-2-(2-methylazetidin-1-yl)-6,7-dihydro-5H-cyclopenta[d]pyrimidine]
253	205	CC1CN(c2nc3c(c(-c4ccc(C(N)=O)cc4)n2)CCC3)C1C (stereo not drawn) [Example 105, 4-(2-(2,3-dimethylazetidin-1-yl)-6,7-dihydro-5H-cyclopenta[d]pyrimidin-4-yl)benzamide]
186	152	C#CC1CCN1c1nc2c(c(-c3ccc(C(N)=O)cc3)n1)CCC2 (stereo not drawn) [Example 111, 4-(2-(2-ethynylazetidin-1-yl)-6,7-dihydro-5H-cyclopenta[d]pyrimidin-4-yl)benzamide]
103	68.8	C[C@H]1[C@H](O)CN1c1nc2c(c(-c3cccc(C4CC4C(N)=O)c3)n1)CCC2 (stereo partly drawn) [Example 112, 2-(3-(2-((2S,3R)-3-hydroxy-2-methylazetidin-1-yl)-6,7-dihydro-5H-cyclopenta[d]pyrimidin-4-yl)phenyl)cyclopropane-1-carboxamide]
54.6	39.8	C[C@H]1CCN1c1nc2c(c(-c3cc(C(N)=O)cc(C(N)=O)c3)n1)CCC2 [Example 116, (S)-5-(2-(2-methylazetidin-1-yl)-6,7-dihydro-5H-cyclopenta[d]pyrimidin-4-yl)isophthalamide]
46.1	42.7	C[C@H]1CCN1c1nc2c(c(-c3ccc4c(O)n[nH]c4c3)n1)CCC2 [Example 120, (S)-6-(2-(2-methylazetidin-1-yl)-6,7-dihydro-5H-cyclopenta[d]pyrimidin-4-yl)-1H-indazol-3-ol]
124	98.3	C[C@H]1[C@H](F)CN1c1nc2c(c(-c3ccc(S(N)(=O)=O)cc3)n1)CCC2 [Example 198, 4-[2-[(2S,3R)-3-fluoro-2-methyl-azetidin-1-yl]-6,7-dihydro-5H-cyclopenta[d]pyrimidin-4-yl]benzenesulfonamide]
79.9	108	C[C@H]1CCN1c1nc2c(c(-c3cncc(S(N)(=O)=O)c3)n1)CCC2 [Example 205, 5-[2-[(2S)-2-methylazetidin-1-yl]-6,7-dihydro-5H-cyclopenta[d]pyrimidin-4-yl]pyridine-3-sulfonamide]
37.5	37.7	CNS(=O)(=O)c1cccc(-c2nc(N3CC[C@@H]3C)nc3c2CCC3)c1 [Example 214, N-methyl-3-[2-[(2S)-2-methylazetidin-1-yl]-6,7-dihydro-5H-cyclopenta[d]pyrimidin-4-yl]benzenesulfonamide]
78.9	106	C[C@H]1CCN1c1nc2c(c(-c3cccc(S(=O)(=O)N(C)C)c3)n1)CCC2 [Example 215, N,N-dimethyl-3-[2-[(2S)-2-methylazetidin-1-yl]-6,7-dihydro-5H-cyclopenta[d]pyrimidin-4-yl]benzenesulfonamide]
75.1	79.2	C[C@H]1CCN1c1nc2c(c(-c3ccc4c(c3)CCN(C)C4=O)n1)CCC2 [Example 222, (S)-2-methyl-6-(2-(2-methylazetidin-1-yl)-6,7-dihydro-5H-cyclopenta[d]pyrimidin-4-yl)-3,4-dihydroisoquinolin-1(2H)-one]
159	143	C[C@H]1CCN1c1nc2c(c(-c3cccc(CNC(=O)C(C)(C)O)c3)n1)CCC2 [Example 228, 2-hydroxy-2-methyl-N-[[3-[2-[(2S)-2-methylazetidin-1-yl]-6,7-dihydro-5H-cyclopenta[d]pyrimidin-4-yl]phenyl]methyl]propanamide]
108	95.7	C[C@@H](O)C(=O)NCc1cccc(-c2nc(N3CC[C@@H]3C)nc3c2CCC3)c1 [Example 229, (2R)-2-hydroxy-N-[[3-[2-[(2S)-2-methylazetidin-1-yl]-6,7-dihydro-5H-cyclopenta[d]pyrimidin-4-yl]phenyl]methyl]propanamide]
96.7	107	C[C@H](O)C(=O)NCc1cccc(-c2nc(N3CC[C@@H]3C)nc3c2CCC3)c1 [Example 230, (2S)-2-hydroxy-N-[[3-[2-[(2S)-2-methylazetidin-1-yl]-6,7-dihydro-5H-cyclopenta[d]pyrimidin-4-yl]phenyl]methyl]propanamide]
55.7	9.7	C[C@H]1CCN1c1nc2c(c(-c3ccc(C4CNC4)cc3)n1)CCC2 [Example 233, 4-[4-(azetidin-3-yl)phenyl]-2-[(2S)-2-methylazetidin-1-yl]-6,7-dihydro-5H-cyclopenta[d]pyrimidine]
117	70.6	C[C@H]1CCN1c1nc2c(c(-c3ccc4c(c3)C(=O)NS4(=O)=O)n1)CCC2 [Example 239, (S)-5-(2-(2-methylazetidin-1-yl)-6,7-dihydro-5H-cyclopenta[d]pyrimidin-4-yl)benzo[d]isothiazol-3(2H)-one 1,1-dioxide]
98.6	135	C[C@H]1CCN1c1nc2c(c(-c3ccc(CS(N)(=O)=O)cc3)n1)CCC2 [Example 242, [4-[2-[(2S)-2-methylazetidin-1-yl]-6,7-dihydro-5H-cyclopenta[d]pyrimidin-4-yl]phenyl]methanesulfonamide]

From patent US12410160B2 (Gilead Sciences, Inc., priority 2021, dated 2025)
